≈ marks a conversion by molar mass, not a printed value. Calls of active or inactive are those of the source. No cut-off for these calls is given here.
Tests used:
A-431 = test: Cytotoxicity against human A431 cells; assay type: functional, cell-based
COLO 205 = test: Cytotoxicity against human COLO205 cells; assay type: functional, cell-based
CHO = test: Cytotoxicity against CHO cells; assay type: cell-based; conditions: Cricetulus griseus
MCF7 = test: Cytotoxicity against human MCF7 cells; assay type: functional, cell-based
A549 = test: Cytotoxicity against human A549 cells; assay type: functional, cell-based

Compound | IC50 (A-431) | IC50 (COLO 205) | IC50 (CHO) | IC50 (MCF7) | Activity (A549) | IC50 (A549)
C=C1[C@@H](O)C[C@H]2C(C)(C)CCC[C@]2(C)[C@H]1C/C=C1/CCOC1=O | 31.5 µg/mL (≈ 99 µM) | 29.8 µg/mL (≈ 93.6 µM) | 21.3 µg/mL (≈ 67 µM) | 33.5 µg/mL (≈ 105 µM) | inactive | –
CC1=CC(=O)[C@H]2C(C)(C)CCC[C@]2(C)[C@@]1(O)/C=C/c1ccoc1 | 26.1 µg/mL (≈ 83 µM) | 24 µg/mL (≈ 76.4 µM) | 15.7 µg/mL (≈ 49.9 µM) | 30.9 µg/mL (≈ 98.4 µM) | – | 41.2 µg/mL (≈ 131 µM)
O=c1c(O)c(-c2ccccc2)oc2cc(O)cc(O)c12 [GALANGIN] | 39.4 µg/mL (≈ 146 µM) | 33.1 µg/mL (≈ 123 µM) | 27 µg/mL (≈ 99.8 µM) | 53.1 µg/mL (≈ 196 µM) | – | 54.2 µg/mL (≈ 201 µM)
CC1=C(O)C(=O)[C@H]2C(C)(C)CCC[C@]2(C)[C@H]1/C=C/C1=CC(=O)OC1 | 16 µg/mL (≈ 48.5 µM) | 12 µg/mL (≈ 36.4 µM) | 7.69 µg/mL (≈ 23.3 µM) | 21.1 µg/mL (≈ 63.7 µM) | – | 38 µg/mL (≈ 115 µM)
COc1cc(O)c2c(=O)cc(-c3ccccc3)oc2c1 [TECHTOCHRYSIN] | 39 µg/mL (≈ 145 µM) | 37.1 µg/mL (≈ 138 µM) | 23.5 µg/mL (≈ 87.7 µM) | 51 µg/mL (≈ 190 µM) | – | 49.6 µg/mL (≈ 185 µM)
C=C1C[C@@H](O)[C@H]2C(C)(C)CCC[C@]2(C)[C@H]1/C=C/c1ccoc1 [YUNNACORONARIN A] | 29 µg/mL (≈ 96.6 µM) | 27.1 µg/mL (≈ 90.3 µM) | 17.9 µg/mL (≈ 59.5 µM) | 28 µg/mL (≈ 93.4 µM) | – | 46.6 µg/mL (≈ 155 µM)
C=C1CC(=O)[C@H]2C(C)(C)CCC[C@]2(C)[C@H]1C/C=C1\CC(O)OC1=O (stereo not given in full) | 30.5 µg/mL (≈ 91.8 µM) | 27.6 µg/mL (≈ 82.9 µM) | 20.4 µg/mL (≈ 61.2 µM) | 49.3 µg/mL (≈ 148 µM) | inactive | –
